Counter-ions that a name gives are not always drawn.
What was measured:
[1] = molecular target: T1, GK-GKRP (Homo sapiens, UniProt Q14397); assay: biochemical; settings: GK-GKRP IC50 (Binding)
T1 sequence (Q14397 1-625): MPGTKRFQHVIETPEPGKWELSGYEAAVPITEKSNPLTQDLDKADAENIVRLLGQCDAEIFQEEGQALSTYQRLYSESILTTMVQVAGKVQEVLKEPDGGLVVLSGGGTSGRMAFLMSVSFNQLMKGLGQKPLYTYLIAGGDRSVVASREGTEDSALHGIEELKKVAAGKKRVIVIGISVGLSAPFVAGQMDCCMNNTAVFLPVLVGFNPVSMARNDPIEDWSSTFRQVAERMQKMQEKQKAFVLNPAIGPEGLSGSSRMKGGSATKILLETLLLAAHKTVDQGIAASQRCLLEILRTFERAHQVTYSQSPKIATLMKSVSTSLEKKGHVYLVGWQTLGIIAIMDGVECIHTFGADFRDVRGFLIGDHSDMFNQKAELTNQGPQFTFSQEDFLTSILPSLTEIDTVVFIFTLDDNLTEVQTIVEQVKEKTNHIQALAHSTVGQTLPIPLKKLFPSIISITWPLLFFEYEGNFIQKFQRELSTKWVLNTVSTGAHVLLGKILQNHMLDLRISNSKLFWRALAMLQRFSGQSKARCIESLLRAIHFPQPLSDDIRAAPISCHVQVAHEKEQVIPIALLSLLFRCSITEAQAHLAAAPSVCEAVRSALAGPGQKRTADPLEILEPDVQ

[2] = molecular target: T2, GKRP (Glucokinase Regulatory Protein) with human His-hepatic GK (Homo sapiens, UniProt Q14397); assay: GKRP LC MS/MS Biochemical Assay; settings: 13C-glucose-6-phosphate formation, 1 μM GKRP (10×), 30 nM GK (5×)
T2 sequence (Q14397 1-625): T1 sequence (Q14397 1-625)
Procedure, shortened: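 Human His-hepatic GK (working stock 30 nM, 5×) with GKRP in 50 mM Tris pH 7.5, 4 mM MgCl2, 6% DMSO, DTT, BSA and Brij-35. After a 30 min preincubation, GK was added and the reaction ran 30 min at room temperature. Stopped with acetonitrile; 13C-glucose-6-phosphate formed from 13C-glucose quantified by LC MS/MS.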

[3] = molecular target: T2, GKRP (Glucokinase Regulatory Protein) with human His-hepatic GK; assay: GKRP NADPH Coupled Assay; type: biochemical; settings: indirect measure of glucose-6-phosphate, fluorescence, 1 μM GKRP (10×), 20 nM GK (5×)
Procedure, shortened: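 Human His-hepatic GK (5× stock 20 nM) in 50 mM Tris pH 7.5, 4 mM MgCl2, 6% DMSO, 0.1% BSA, 0.01% Brij-35, with GKRP and compound preincubated 30 min, then reaction 1 h at RT. Glucose-6-phosphate read indirectly via G6P dehydrogenase-coupled NADPH formation from β-NADP (2× stop/detection reagent, pH 9.2, 5 min).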

| Structure (SMILES) | IC50 [1] | EC50 ([2]; GK-GKRP EC50 (LC MS/MS)) | EC50 ([3]; GK-GKRP EC50 (NADPH-coupled)) | also measured |
| --- | --- | --- | --- | --- |
| CC#CC1CN(S(=O)(=O)c2nccs2)CCN1c1ccc(C(O)(C(F)(F)F)C(F)(F)F)cc1 (stereo not drawn) [Example 248] | 15 nM |  |  |  |
| CC#CC1CN(S(=O)(=O)c2ccc(N)nc2)CCN1c1ncc(C(C)(O)C(F)(F)F)cn1 (single isomer, unassigned) [Example 251 Second Eluting Peak from Set One, 2-(2-(4-((6-amino-3-pyridinyl)sulfonyl)-2-(1-propyn-1-yl)-1-piperazinyl)-5-pyrimidinyl)-1,1,1-trifluoro-2-propanol] | 9 nM |  |  |  |
| CC(O)(c1ccc(N2CCN(S(=O)(=O)c3cccs3)C[C@@H]2CNS(=O)(=O)c2ccc(F)cc2)cc1)C(F)(F)F (mixture of isomers) [Example 254, 4-fluoro-N-(((2S)-4-(2-thiophenylsulfonyl)-1-(4-(2,2,2-trifluoro-1-hydroxy-1-methylethyl)phenyl)-2-piperazinyl)methyl)benzenesulfonamide] | 323 nM |  |  |  |
| CC(O)CC1CN(S(=O)(=O)c2ccc(N)nc2)CCN1c1ncc(C(O)(C(F)(F)F)C(F)(F)F)cn1 (stereo not drawn) [Example 244, 2-(2-(4-((6-amino-3-pyridinyl)sulfonyl)-2-(2-hydroxypropyl)-1-piperazinyl)-5-pyrimidinyl)-1,1,1,3,3,3-hexafluoro-2-propanol] | 743 nM |  |  |  |
| CC(O)(c1ccc(N2CCN(S(=O)(=O)c3cccs3)C[C@@H]2CN(c2ccc(F)cc2)S(C)(=O)=O)cc1)C(F)(F)F (mixture of isomers) [Example 255, N-(4-fluorophenyl)-N-(((2R)-4-(2-thiophenylsulfonyl)-1-(4-(2,2,2-trifluoro-1-hydroxy-1-methylethyl)phenyl)-2-piperazinyl)methyl)methanesulfonamide] | 2 nM |  |  |  |
| CC(c1ccccc1)N(C[C@H]1CN(S(=O)(=O)c2cccs2)CCN1c1ccc(C(C)(O)C(F)(F)F)cc1)S(C)(=O)=O (mixture of isomers) [Example 252, N-(1-phenylethyl)-N-(((2R)-4-(2-thiophenylsulfonyl)-1-(4-(2,2,2-trifluoro-1-hydroxy-1-methylethyl)phenyl)-2-piperazinyl)methyl)methanesulfonamide] | 671 nM |  |  |  |
| CC(O)(c1cnc(-c2ccc(S(=O)(=O)c3ccc(N)nc3)cc2)nc1)C(F)(F)F (racemic) [Example 265, 2-(2-(4-((6-amino-3-pyridinyl)sulfonyl)phenyl)-5-pyrimidinyl)-1,1,1-trifluoro-2-propanol] | 229 nM |  |  |  |
| C[C@H]1COCC(=O)N1C[C@H]1CN(S(=O)(=O)c2cccs2)CCN1c1ccc([C@](C)(O)C(F)(F)F)cc1 [Example 272, (S)-5-methyl-4-(((S)-4-(tiophen-2-ylsulfonyl)-1-(4-((S)-1,1,1-trifluoro-2-hydroxypropan-2-yl)phenyl)piperazin-2-yl)methyl)morpholin-3-one] | 217 nM |  |  |  |
| CC#Cc1cc(C(O)(C(F)(F)F)C(F)(F)F)ccc1N1CCN(S(=O)(=O)c2cccs2)CC1 [Example 262, 1,1,1,3,3,3-hexafluoro-2-(3-(1-propyn-1-yl)-4-(4-(2-thiophenylsulfonyl)-1-piperazinyl)phenyl)-2-propanol] | 834 nM |  |  |  |
| CC(O)(c1ccc(N2CCN(S(=O)(=O)c3cccs3)CC2CN2CC3CCC(C2)O3)cc1)C(F)(F)F (racemic) [Example 46, 1,1,1-trifluoro-2-(4-(2-(8-oxa-3-azabicyclo[3.2.1]oct-3-ylmethyl)-4-(2-thiophenylsulfonyl)-1-piperazinyl)phenyl)-2-propanol] |  | 178 nM | 154 nM |  |
| CC(O)(c1ccc(N2CCN(S(=O)(=O)c3cccs3)CC2CC#N)cc1)C(F)(F)F (mixture of isomers) [Example 55, (4-(2-thiophenylsulfonyl)-1-(4-(2,2,2-trifluoro-1-hydroxy-1-methylethyl)phenyl)-2-piperazinyl)acetonitrile] |  |  |  | EC50 ([2]; read-out: GK-GKRP EC50 (LC MS/MS)): 3940 nM; EC50 ([3]; read-out: GK-GKRP EC50 (NADPH-coupled)): 3030 nM |
| CC1(C#Cc2cc(C(C)(O)C(F)(F)F)ccc2N2CCN(S(=O)(=O)c3cccs3)CC2)COC1 (racemic) [Example 75, 1,1,1-trifluoro-2-(3-((3-methyl-3-oxetanyl)ethynyl)-4-(4-(2-thiophenylsulfonyl)-1-piperazinyl)phenyl)-2-propanol] |  | 2800 nM | 2900 nM |  |
| CC(O)(c1ccc(N2CCN(S(=O)(=O)c3ccccc3)CC2)cc1)C(F)(F)F (racemic) [Example 24, 1,1,1-trifluoro-2-(4-(4-(phenylsulfonyl)-1-piperazinyl)phenyl)-2-propanol] |  | 3960 nM | 1840 nM |  |
| CC(O)(c1ccc(N2CCN(S(=O)(=O)c3cccs3)C[C@@H]2Cc2ccccc2)cc1)C(F)(F)F (single isomer, unassigned) [Example 65 Peak #1] |  | 643 nM | 367 nM |  |
| CC(O)(c1ccc(N2CCN(S(=O)(=O)c3cccs3)CC2CN2CCOCC2)cc1)C(F)(F)F (mixture of isomers) [Example 61, 1,1,1-trifluoro-2-(4-(2-(4-morpholinylmethyl)-4-(2-thiophenylsulfonyl)-1-piperazinyl)phenyl)-2-propanol] |  | 355 nM | 230 nM |  |
| CC(O)(c1ccc(N2CCN(S(=O)(=O)c3cccs3)CC2CN2CCOCC2CO)cc1)C(F)(F)F (mixture of isomers) [Example 48, 1,1,1-trifluoro-2-(4-(2-((3-(hydroxymethyl)-4-morpholinyl)methyl)-4-(2-thiophenylsulfonyl)-1-piperazinyl)phenyl)-2-propanol] |  | 606 nM | 389 nM |  |
| O=S(=O)(c1ccccc1)N1CCN(c2ccc(C(O)(C3CC3)C(F)(F)F)cc2)CC1 (racemic) [Example 15, 1-cyclopropyl-2,2,2-trifluoro-1-(4-(4-(phenylsulfonyl)-1-piperazinyl)phenyl)ethanol] |  | 2770 nM | 2620 nM |  |
| C[C@H]1CN(S(=O)(=O)c2ccccc2)CCN1c1ccc(C(C)(O)C(F)(F)F)cc1 (mixture of isomers) [Example 28, 1,1,1-trifluoro-2-(4-((2S)-2-methyl-4-(phenylsulfonyl)-1-piperazinyl)phenyl)-2-propanol] |  | 4010 nM | 3120 nM |  |
| CC(O)(c1ccc(N2CCN(S(=O)(=O)c3cccs3)CC2CC2CCOCC2)cc1)C(F)(F)F (single isomer, unassigned) [Example 37 Peak #2, 1,1,1-trifluoro-2-(4-(2-(tetrahydro-2H-pyran-4-ylmethyl)-4-(2-thiophenylsulfonyl)-1-piperazinyl)phenyl)-2-propanol] |  | 128 nM | 124 nM |  |
| CC(O)(c1ccc(N2CCN(S(=O)(=O)c3cccs3)CC2Cc2ccc(F)cc2)cc1)C(F)(F)F (mixture of isomers) [Example 40, 1,1,1-trifluoro-2-(4-(2-(4-fluorobenzyl)-4-(2-thiophenylsulfonyl)-1-piperazinyl)phenyl)-2-propanol] |  | 1250 nM | 895 nM |  |
| O=S(=O)(c1cccs1)N1CCN(c2ccc(C(O)(C(F)(F)F)C(F)(F)F)cc2-c2ccccc2)CC1 [Example 69, 1,1,1,3,3,3-hexafluoro-2-(6-(4-(2-thiophenylsulfonyl)-1-piperazinyl)-3-biphenylyl)-2-propanol trifluoroacetate] |  | 1750 nM | 2120 nM |  |
| CC(O)(c1ccc(N2CCN(S(=O)(=O)c3cccs3)CC2c2cc(Cl)ccc2Cl)cc1)C(F)(F)F (mixture of isomers) [Example 13, 2-(4-(2-(2,5-dichlorophenyl)-4-(2-thiophenylsulfonyl)-1-piperazinyl)phenyl)-1,1,1-trifluoro-2-propanol] |  | 1960 nM | 2640 nM |  |
| CC(O)(c1ccc(N2CCN(S(=O)(=O)c3cccs3)CC2Cc2ccncc2)cc1)C(F)(F)F (mixture of isomers) [Example 76, 1,1,1-trifluoro-2-(4-(2-(4-pyridinylmethyl)-4-(2-thiophenylsulfonyl)-1-piperazinyl)phenyl)-2-propanol trifluoroacetate] |  | 522 nM | 207 nM |  |
| COc1cccc(-c2cc(C(O)(C(F)(F)F)C(F)(F)F)ccc2N2CCN(S(=O)(=O)c3cccs3)CC2)c1 [Example 70, 1,1,1,3,3,3-hexafluoro-2-(3′-methoxy-6-(4-(2-thiophenylsulfonyl)-1-piperazinyl)-3-biphenylyl)-2-propanol trifluoroacetate] |  | 1820 nM | 3340 nM |  |

Source: patent US8431563B2 (priority 2010, dated 2013)
